From patent US20100076015A1, “Aminopyridine Derivatives” (VANTIA LIMITED, priority 2008, published 2010)

Each molecule was assayed against T1, Human KLK1 (Homo sapiens, UniProt P06870) (assay: Determination of the IC50 for KLK1 (fluorogenic substrate H-DVal-Leu-Arg-AFC)). Conditions: 37° C.
T1 construct: purchased Callbiochem (Calbiochem)
Format: biochemical
In short: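 Test compound at various concentrations was incubated with human KLK1 and the fluorogenic substrate H-DVal-Leu-Arg-AFC at 37° C. Absorbance change at 410 nm gave the initial reaction rate, from which IC50 was obtained.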

T1 sequence (P06870 25-262): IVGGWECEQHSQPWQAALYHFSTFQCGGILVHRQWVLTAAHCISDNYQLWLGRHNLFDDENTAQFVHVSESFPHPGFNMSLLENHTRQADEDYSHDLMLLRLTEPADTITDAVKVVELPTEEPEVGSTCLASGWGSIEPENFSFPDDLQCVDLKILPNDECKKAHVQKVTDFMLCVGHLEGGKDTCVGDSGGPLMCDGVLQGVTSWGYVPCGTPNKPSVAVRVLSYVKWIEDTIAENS

Compound	IC50 [nM]
Cc1nc(N)ccc1CNC(=O)[C@H](Cc1ccc(Cl)c(Cl)c1)NC(=O)[C@H](N)C1CCCCC1 [Example 198, (S)-2-((R)-2-Amino-2-cyclohexyl-acetylamino)-N-(6-amino-2-methyl-pyridin-3-ylmethyl)-3-(3,4-dichloro-phenyl)-propionamide]	28
Nc1ccc(CNC(=O)[C@H](Cc2ccc(C(F)(F)F)cc2)NC(=O)CN2CCCCC2)cn1 [Example 423, (S)—N-(6-Amino-pyridin-3-ylmethyl)-2-(2-piperidin-1-yl-acetylamino)-3-(4-trifluoromethyl-phenyl)-propionamide]	129
C[C@H](C(=O)N[C@@H](Cc1ccc(Cl)c(Cl)c1)C(=O)NCc1ccc(N)nc1)N(C)S(C)(=O)=O [Example 212, (R)—N-[(S)-1-[(6-Amino-pyridin-3-ylmethyl)-carbamoyl]-2-(3,4-dichloro-phenyl)-ethyl]-2-(methanesulfonyl-methyl-amino)-propionamide]	29.8
COc1ccc2[nH]c(C(=O)N[C@@H](Cc3cccc(C(F)(F)F)c3)C(=O)NCc3ccc(N)nc3C)cc2c1 [Example 310, 5-Methoxy-1H-indole-2-carboxylic acid [(S)-1-[(6-amino-2-methyl-pyridin-3-ylmethyl)-carbamoyl]-2-(3-trifluoromethyl-phenyl)-ethyl]-amide]	48.9
Cc1nc(N)ccc1CNC(=O)[C@H](Cc1ccc(Cl)c(Cl)c1)NC(=O)[C@H](N)Cc1ccc(Cl)cc1 [Example 195, (R)-2-Amino-N-[(S)-1-[(6-amino-2-methyl-pyridin-3-ylmethyl)-carbamoyl]-2-(3,4-dichloro-phenyl)-ethyl]-3-(4-chloro-phenyl)-propionamide]	5.4
CC(C)N(C)[C@@H](C)C(=O)N[C@@H](Cc1ccc(F)cc1)C(=O)NCc1ccc(N)nc1 [Example 181, (S)—N-[(S)-1-[(6-Amino-pyridin-3-ylmethyl)-carbamoyl]-2-(4-fluoro-phenyl)-ethyl]-2-(isopropyl-methyl-amino)-propionamide]	1.1
CN1CCC[C@@H]1C(=O)N[C@@H](Cc1ccccc1C(F)(F)F)C(=O)NCc1ccc(N)nc1 [Example 111, (R)-1-Methyl-pyrrolidine-2-carboxylic acid [(S)-1-[(6-amino-pyridin-3-ylmethyl)-carbamoyl]-2-(2-trifluoromethyl-phenyl)-ethyl]-amide]	15
Cc1ccc(-c2ccc(C(=O)N[C@@H](Cc3csc4ccccc34)C(=O)NCc3ccc(N)nc3)[nH]2)cc1 [Example 293, 5-p-Tolyl-1H-pyrrole-2-carboxylic acid {(S)-1-[(6-amino-pyridin-3-ylmethyl)-carbamoyl]-2-benzo[b]thiophen-3-yl-ethyl}-amide]	36.3
Cc1nc(N)ccc1CNC(=O)[C@H](Cc1ccc(Cl)c(Cl)c1)NC(=O)c1cc2ccccc2[nH]1 [Example 320, 1H-Indole-2-carboxylic acid [(S)-1-[(6-amino-2-methyl-pyridin-3-ylmethyl)-carbamoyl]-2-(3,4-dichloro-phenyl)-ethyl]-amide]	98.5
CN[C@H](C)C(=O)N[C@@H](Cc1ccc(F)cc1)C(=O)NCc1ccc(N)nc1 [Example 87, (R)—N-[(S)-1-[(6-Amino-pyridin-3-ylmethyl)-carbamoyl]-2-(4-fluoro-phenyl)-ethyl]-2-methylamino-propionamide]	6.4
CCN(CC)[C@@H](C)C(=O)N[C@@H](Cc1cccc(C(F)(F)F)c1)C(=O)NCc1ccc(N)nc1 [Example 418, (S)—N-[(S)-1-[(6-Amino-pyridin-3-ylmethyl)-carbamoyl]-2-(3-trifluoromethyl-phenyl)-ethyl]-2-diethylamino-propionamide]	2
Cc1cccc(C[C@H](NC(=O)c2cc3ccccc3[nH]2)C(=O)NCc2ccc(N)nc2C)c1 [Example 319, 1H-Indole-2-carboxylic acid {(S)-1-[(6-amino-2-methyl-pyridin-3-ylmethyl)-carbamoyl]-2-m-tolyl-ethyl}-amide]	110
CN[C@H](Cc1ccccc1)C(=O)N[C@@H](Cc1ccc(F)c(F)c1)C(=O)NCc1ccc(N)nc1 [Example 81, (R)—N-[(S)-1-[(6-Amino-pyridin-3-ylmethyl)carbamoyl]-2-(3,4-difluoro-phenyl)-ethyl]-2-methylamino-3-phenyl-propionamide]	5
CCC(C)C(NC)C(=O)NC(Cc1c(F)c(F)c(F)c(F)c1F)C(=O)NCc1ccc(N)nc1 [Example 50, (R)-3-Methyl-2-methylamino-pentanoic acid {(S)-1-[(6-amino-pyridin-3-ylmethyl)-carbamoyl]-2-pentafluorophenyl-ethyl}-amide]	29.1

The remaining lines, values ahead:

IC50 [nM]	Compound
100	CC(C)N(C)[C@@H](C)C(=O)N[C@@H](C(=O)NCc1ccc(N)nc1)C(C1CCCCC1)C1CCCCC1 [Example 433, (S)—N-{(R)-1-[(6-Amino-pyridin-3-ylmethyl)-carbamoyl]-2,2-dicyclohexyl-ethyl}-2-(isopropyl-methyl-amino)-propionamide]
0.17	CC(C)N(C)[C@@H](C)C(=O)N[C@@H](CC1CCCC2CCCCC21)C(=O)NCc1ccc(N)nc1 (stereo partly drawn) [Example 395, (S)—N-[(S)-1-[(6-Amino-pyridin-3-ylmethyl)-carbamoyl]-2-(decahydro-naphthalen-1-yl)-ethyl]-2-(isopropyl-methyl-amino)-propionamide]
56.5	CN(CC(=O)N[C@@H](Cc1ccc(F)c(F)c1)C(=O)NCc1ccc(N)nc1)Cc1ccc(Cl)cc1 [Example 163, (S)—N-(6-Amino-pyridin-3-ylmethyl)-2-{2-[(4-chloro-benzyl)-methyl-amino]-acetylamino}-3-(3,4-difluoro-phenyl)-propionamide]
375	Cc1cc[nH]c1C(=O)N[C@@H](CC1CCCCC1)C(=O)NCc1ccc(N)nc1 [Example 273, 3-Methyl-1H-pyrrole-2-carboxylic acid {(S)-1-[(6-amino-pyridin-3-ylmethyl)-carbamoyl]-2-cyclohexyl-ethyl}-amide]
1.4	CN1CCC[C@@H]1C(=O)N[C@@H](CC1CCCC2CCCCC21)C(=O)NCc1ccc(N)nc1 (stereo partly drawn) [Example 396, (R)-1-Methyl-pyrrolidine-2-carboxylic acid [(S)-1-[(6-amino-pyridin-3-ylmethyl)-carbamoyl]-2-(decahydro-naphthalen-1-yl)-ethyl]-amide]
25.4	Nc1ccc(CNC(=O)[C@H](Cc2ccc(F)c(F)c2)NC(=O)c2cc3cc(F)ccc3[nH]2)cn1 [Example 326, 5-Fluoro-1H-indole-2-carboxylic acid [(S)-1-[(6-amino-pyridin-3-ylmethyl)-carbamoyl]-2-(3,4-difluoro-phenyl)-ethyl]-amide]
5.4	CCC(C)[C@@H](NC)C(=O)N[C@@H](Cc1ccc(F)cc1)C(=O)NCc1ccc(N)nc1 (stereo partly drawn) [Example 44, (R)-3-Methyl-2-methylamino-pentanoic acid [(S)-1-[(6-amino-pyridin-3-ylmethyl)-carbamoyl]-2-(4-fluoro-phenyl)-ethyl]-amide]
1.1	Nc1ccc(CNC(=O)[C@H](Cc2ccc(F)cc2)NC(=O)[C@H]2CCCCN2)cn1 [Example 73, (R)-Piperidine-2-carboxylic acid [(S)-1-[(6-amino-pyridin-3-ylmethyl)-carbamoyl]-2-(4-fluoro-phenyl)-ethyl]-amide]
1.7	Cc1nc(N)ccc1CNC(=O)[C@H](Cc1ccc(F)c(F)c1)NC(=O)CN1C(C)CCCC1C (stereo partly drawn) [Example 429, (S)—N-(6-Amino-2-methyl-pyridin-3-ylmethyl)-3-(3,4-difluoro-phenyl)-2-[2-(2,6-dimethyl-piperidin-1-yl)-acetylamino]-propionamide]
2.2	CN[C@@H](C(=O)N[C@@H](Cc1cccc(Cl)c1)C(=O)NCc1ccc(N)nc1)C(C)C [Example 341, (R)—N-[(S)-1-[(6-Amino-pyridin-3-ylmethyl)-carbamoyl]-2-(3-chloro-phenyl)-ethyl]-3-methyl-2-methylamino-butyramide]
122	Cc1cc(C)c(C(=O)N[C@@H](Cc2ccc(C(C)(C)C)cc2)C(=O)NCc2ccc(N)nc2)[nH]1 [Example 256, 3,5-Dimethyl-1H-pyrrole-2-carboxylic acid [(S)-1-[(6-amino-pyridin-3-ylmethyl)-carbamoyl]-2-(4-tert-butyl-phenyl)-ethyl]-amide]
11.6	CC(C(=O)N[C@@H](Cc1ccc(F)c(F)c1)C(=O)NCc1ccc(N)nc1)N1CCCCC1 (stereo partly drawn) [Example 354, N-[(S)-1-[(6-Amino-pyridin-3-ylmethyl)-carbamoyl]-2-(3,4-difluoro-phenyl)-ethyl]-2-piperidin-1-yl-propionamide]
21.6	CNCC(=O)N[C@@H](CC1CCCC2CCCCC21)C(=O)NCc1ccc(N)nc1 (stereo partly drawn) [Example 19, (S)—N-(6-Amino-pyridin-3-ylmethyl)-3-(decahydro-naphthalen-1-yl)-2-(2-methylamino-acetylamino)-propionamide]
68.4	Nc1ccc(CNC(=O)[C@H](Cc2cc(F)c(F)cc2F)NC(=O)c2cc3ccccc3[nH]2)cn1 [Example 324, 1H-Indole-2-carboxylic acid [(S)-1-[(6-amino-pyridin-3-ylmethyl)-carbamoyl]-2-(2,4,5-trifluoro-phenyl)-ethyl]-amide]
3.6	CC(C1CCCCC1)[C@@H](NC(=O)[C@H](C)N(C)C(C)C)C(=O)NCc1ccc(N)nc1 (stereo partly drawn) [Example 436, (R)—N-(6-Amino-pyridin-3-ylmethyl)-3-cyclohexyl-2-[(S)-2-(isopropyl-methyl-amino)-propionylamino]-butyramide]
28.4	CN1CCC[C@@H]1C(=O)N[C@@H](Cc1ccc2ccccc2n1)C(=O)NCc1ccc(N)nc1 [Example 114, (R)-1-Methyl-pyrrolidine-2-carboxylic acid {(S)-1-[(6-amino-pyridin-3-ylmethyl)-carbamoyl]-2-quinolin-2-yl-ethyl}-amide]
24.5	CCCCN(C)[C@@H](C)C(=O)N[C@@H](Cc1ccc(F)c(F)c1)C(=O)NCc1ccc(N)nc1 [Example 347, (S)—N-[(S)-1-[(6-Amino-pyridin-3-ylmethyl)-carbamoyl]-2-(3,4-difluoro-phenyl)-ethyl]-2-(butyl-methyl-amino)-propionamide]
